Data from US20230405095A1, “DOSING REGIMEN” (VIIV HEALTHCARE UK (NO. 7) LIMITED, priority 2022, published 2023).
“And” between values parts separate entries of the source, which are not always exact repeats. Equal entries are not always repeated. Where two headings read alike, the source gives them in different places.

How the values were obtained:
[1] = Blood pharmacokinetics of cabotegravir after a single subcutaneous administration with or without rHuPH20; assay type: in vivo, male Sprague-Dawley rats; conditions: for Tmax / half-life / AUC(0-t) / Cmax / AUC (0-tlast) / T½: rat blood; for half-life: read-out: T½ (converted); for AUC(0-t): read-out: AUC (0-tlast)
Procedure: Cabotegravir (free acid) was supplied by the Department of Pharmaceutical Development, at GSK, Upper Providence (UP), as a wet bead milled suspension (WBM), of nominal 200 mg/mL active concentration, white to slightly pink in appearance to be used for subcutaneous (SC) injection. The test article was milled and supplied in an aqueous vehicle (see Table 1). The test article was filled into vials, stoppered, sealed and subjected to gamma sterilization at between 25-45 kGy.
Twelve male Sprague-Dawley rats (body weight approximately 275-300 grams upon arrival), from Charles River Laboratories, Raleigh, were used in this study. Rats were randomized by number one day prior to the start of study. All rats were euthanized at study end.
Dose volumes administered for cabotegravir (target concentration of 200 mg/mL) were based on animal weights obtained just prior to dosing to achieve a target dosage of 10 mg/kg (groups 1 and 2) and 5 mg/kg (groups 3 and 4). Test article was resuspended prior to dosing by inverting supplied vials and checking vial bottom for non-resuspended sediments. Syringes used to dose cabotegravir were weighed pre- and post-dose to determine exact amount of cabotegravir administered. Rats were lightly anesthetized under isoflurane for a short period to perform the dosing procedure. Injection sites were shaved immediately prior to dosing, wiped with alcohol and allowed to dry. For groups 1 and 3, the cabotegravir doses were injected subcutaneously into the lower scapular region. After removing the dosing needle, minimal, but adequate, pressure was applied to the skin at the injection site (i.e., to keep the site still and closed) for approximately 1 minute to enable coagulation and sealing of the puncture. The sites were observed immediately after the needle was withdrawn to note any dose leakage. For groups 2 and 4, the rHuPH20 was injected subcutaneously first (approximately 3000 units in 100 μL, these syringes were not weighed), immediately followed by the Cabotegravir injection with the goal of injecting both formulations in the same subcutaneous space of the lower scapular region. After removing the second dosing needle, minimal, but adequate, pressure was applied to the skin at the injection site (i.e., to keep the site still and closed) for approximately 1 minute to enable coagulation and sealing of the puncture. Any dose leakage was noted. Injection sites were monitored daily for the first week of study and then weekly for the remainder of the study and observations recorded. Body weights were recorded on day 0 and then weekly for the remainder of the study.
Blood samples were collected via lateral vein or tail tip amputation. On study Day 0, following subcutaneous injection, blood samples (approximately 75 μL/rat/time point) were collected into 500 μL K2 EDTA tubes at 1, 2, 4 and 8 hr. Samples were then collected at 24 hrs., 48 hrs., and on Days 3, 7, 14, 21, 28, 56 and 84. Exactly 75 μL of whole blood was pipetted into a new tube containing 75 μL of sterile water. Samples were vortexed and placed on dry ice immediately. Samples were stored at −80° C. until transferred to Yinghe Li (DMPK, US) for analysis.
Rat blood: water samples were analyzed for cabotegravir using an analytical method based on protein precipitation, followed by UPLC/MS/MS analysis. The lower limit of quantification (LLQ) for cabotegravir was 5 ng/mL using a 150 μL aliquot of rat blood: water with a higher limit of quantification (HLQ) of 20000 ng/mL. Analyst software version 1.7.1 was used to acquire and process LC-MS/MS data. The applicable analytical runs met all predefined run acceptance criteria.
Pharmacokinetic analysis of cabotegravir blood concentration-time data was performed by a non-compartmental method using Phoenix WinNonlin®, Version 8.1 software. All computations utilized nominal sampling times and doses for the study. […]

[2] = Clinical PK of single SC injection of CAB200 with rHuPH20 (Studies 212482 and 218012); assay type: in vivo, healthy adult participants; conditions: SC with rHuPH20, dose level of 3200 mg or lower
Procedure: In a Phase 1 open-label, dose-escalation study to investigate the safety, tolerability and pharmacokinetics of single-dose administration of various CAB formulations with and without rHuPH20 in healthy adult participants, CAB200 at doses of 800, 1600 and 3200 mg have been administered with rHuPH20 (10,000 IU). rHuPH20 and CAB formulations were administered sequentially; subcutaneous (SC) administration by a health care provider (HCP) is via a butterfly needle and slow SC infusion in the abdominal SC tissue using a syringe pump.
A summary of CAB200 LA SC PK data with rHuPH20 is set forth in the Table below. • In Study 212482, single SC injection of CAB200 (2 mL/400 mg) with rHuPH20 (5000 units) was studied in Cohort 4 h. • In Study 218012, single SC injection of CAB200 with rHuPH20 was studied in cohorts A1 (4 mL/800 mg CAB200), A2 (8 mL/1600 mg CAB200) and A3 (16 mL/3200 mg CAB200). The dose of rHuPH20 was 10000 units. In both studies, rHuPH20 was injected first, followed by SC injection of CAB200.

[3] = CAB Cmax safety threshold; assay type: in vivo; conditions: CAB plasma concentration; read-out: safety threshold: Cmax not associated with any toxicity
[4] = test system: HIV-1 strains; conditions: integrase strand transfer inhibitor; broad range of HIV-1 strains; cited from earlier work
[5] = male, Sprague-Dawley, rat, whole blood, sc, 5 mg/kg, single SC 5 mg/kg, with rHuPH20 approx. 3000 units SC (Group 4), mean ± SD
[6] = male, Sprague-Dawley, rat, whole blood, sc, 5 mg/kg, single SC 5 mg/kg, without rHuPH20 (Group 3), individual animals
[7] = male, Sprague-Dawley, rat, whole blood, sc, 5 mg/kg, single SC 5 mg/kg, without rHuPH20 (Group 3), mean ± SD
[8] = male, Sprague-Dawley, rat, whole blood, sc, 10 mg/kg, single SC 10 mg/kg, with rHuPH20 approx. 3000 units SC (Group 2), mean ± SD
[9] = single SC 5 mg/kg, with rHuPH20 approx. 3000 units SC (Group 4), individual animals, 5 mg/kg
[10] = single SC 5 mg/kg, without rHuPH20 (Group 3), individual animals, 5 mg/kg
[11] = single SC 10 mg/kg, with rHuPH20 approx. 3000 units SC (Group 2), individual animals, 10 mg/kg
[12] = single SC 10 mg/kg, without rHuPH20 (Group 1), individual animals, 10 mg/kg

C[C@H]1CO[C@@H]2Cn3cc(C(=O)NCc4ccc(F)cc4F)c(=O)c(O)c3C(=O)N12 [Cabotegravir, N-((2,4-Difluorophenyl)methyl)-6-hydroxy-3-methyl-5,7-dioxo-2,3,5,7,11,11a hexahydro(1,3)oxazolo(3,2-a)pyrido(1,2-d)pyrazine-8-carboxamide]
Tmax ([1]; male, Sprague-Dawley, rat, whole blood, sc, 5 mg/kg, single SC 5 mg/kg, with rHuPH20 approx. 3000 units SC (Group 4), individual animals, read-out: Tmax): 14.2 days
half-life ([1]; male, Sprague-Dawley, rat, whole blood, sc, 5 mg/kg, single SC 5 mg/kg, with rHuPH20 approx. 3000 units SC (Group 4), individual animals): 10 days
AUC(0-t) [1, 5]: 2800 ± 993 µg·h/mL
Cmax ([1]; male, Sprague-Dawley, rat, whole blood, sc, 5 mg/kg, single SC 5 mg/kg, with rHuPH20 approx. 3000 units SC (Group 4), mean ± SD, read-out: Cmax): 3800 ± 1600 ng/mL
half-life [1, 5]: 7.5 days
Tmax ([1]; male, Sprague-Dawley, rat, whole blood, sc, 5 mg/kg, single SC 5 mg/kg, with rHuPH20 approx. 3000 units SC (Group 4), median, read-out: Tmax): 14.2 days
AUC(0-t) [1, 6]: 4540 µg·h/mL
Cmax ([1]; male, Sprague-Dawley, rat, whole blood, sc, 5 mg/kg, single SC 5 mg/kg, without rHuPH20 (Group 3), individual animals, read-out: Cmax): 7600 ng/mL
Tmax ([1]; male, Sprague-Dawley, rat, whole blood, sc, 5 mg/kg, single SC 5 mg/kg, without rHuPH20 (Group 3), individual animals, read-out: Tmax): 14.2 days
half-life [1, 6]: 8.33 days
AUC(0-t) [1, 7]: 4400 ± 903 µg·h/mL
Cmax ([1]; male, Sprague-Dawley, rat, whole blood, sc, 5 mg/kg, single SC 5 mg/kg, without rHuPH20 (Group 3), mean ± SD, read-out: Cmax): 7000 ± 1500 ng/mL
half-life [1, 7]: 8.33 days
Tmax ([1]; male, Sprague-Dawley, rat, whole blood, sc, 5 mg/kg, single SC 5 mg/kg, without rHuPH20 (Group 3), median, read-out: Tmax): 14.2 days
AUC(0-t) ([1]; male, Sprague-Dawley, rat, whole blood, sc, 10 mg/kg, single SC 10 mg/kg, with rHuPH20 approx. 3000 units SC (Group 2), individual animals): 6280 µg·h/mL
Cmax ([1]; male, Sprague-Dawley, rat, whole blood, sc, 10 mg/kg, single SC 10 mg/kg, with rHuPH20 approx. 3000 units SC (Group 2), individual animals, read-out: Cmax): 10000 ng/mL
Tmax ([1]; male, Sprague-Dawley, rat, whole blood, sc, 10 mg/kg, single SC 10 mg/kg, with rHuPH20 approx. 3000 units SC (Group 2), individual animals, read-out: Tmax): 14.2 days
AUC(0-t) [1, 8]: 7730 ± 1930 µg·h/mL
Cmax ([1]; male, Sprague-Dawley, rat, whole blood, sc, 10 mg/kg, single SC 10 mg/kg, with rHuPH20 approx. 3000 units SC (Group 2), mean ± SD, read-out: Cmax): 9100 ± 2100 ng/mL
half-life [1, 8]: 15 days
Tmax ([1]; male, Sprague-Dawley, rat, whole blood, sc, 10 mg/kg, single SC 10 mg/kg, with rHuPH20 approx. 3000 units SC (Group 2), median, read-out: Tmax): 14.2 days
AUC(0-t) ([1]; male, Sprague-Dawley, rat, whole blood, sc, 10 mg/kg, single SC 10 mg/kg, without rHuPH20 (Group 1), individual animals): 5640 µg·h/mL
Tmax ([1]; male, Sprague-Dawley, rat, whole blood, sc, 10 mg/kg, single SC 10 mg/kg, without rHuPH20 (Group 1), individual animals, read-out: Tmax): 14.2 days
half-life ([1]; male, Sprague-Dawley, rat, whole blood, sc, 10 mg/kg, single SC 10 mg/kg, without rHuPH20 (Group 1), mean ± SD (animal 12 excluded)): 13.8 days
AUC(0-t) ([1]; male, Sprague-Dawley, rat, whole blood, sc, 10 mg/kg, single SC 10 mg/kg, without rHuPH20 (Group 1), mean ± SD): 7320 ± 2320 µg·h/mL
Cmax ([1]; male, Sprague-Dawley, rat, whole blood, sc, 10 mg/kg, single SC 10 mg/kg, without rHuPH20 (Group 1), mean ± SD, read-out: Cmax): 8000 ± 3500 ng/mL
Tmax ([1]; male, Sprague-Dawley, rat, whole blood, sc, 10 mg/kg, single SC 10 mg/kg, without rHuPH20 (Group 1), median, read-out: Tmax): 14.2 days
AUC (0-tlast) [1, 9]: 3348 µg·h/mL and 1654 µg·h/mL and 3397 µg·h/mL
Cmax [1, 9]: 3200 ng/mL and 2600 ng/mL and 5700 ng/mL
Tmax [1, 9]: 7.08 days
T½ [1, 9]: 160 h and 140 h
AUC (0-tlast) [1, 10]: 5221 µg·h/mL and 3432 µg·h/mL
Cmax [1, 10]: 5200 ng/mL
Tmax [1, 10]: 7.08 days
T½ [1, 10]: 220 h and 170 h
AUC (0-tlast) [1, 11]: 7008 µg·h/mL and 9916 µg·h/mL
Cmax [1, 11]: 6800 ng/mL
T½ [1, 11]: 210 h and 360 h and 510 h
AUC (0-tlast) [1, 12]: 9970 µg·h/mL and 6333 µg·h/mL
Cmax [1, 12]: 7100 ng/mL and 12000 ng/mL and 5100 ng/mL
T½ [1, 12]: 430 h and 230 h and 1100^b^ h
systemic exposure with versus without administration of rHuPH20 ([1]; rats, single SC 5 and 10 mg/kg, rHuPH20 3000 U): similar
systemic exposure as defined by AUC: dose proportionality ([1]; rats, single SC, target doses of 5 and 10 mg/kg): approximately dose proportional
CAB SC Cmax versus safety threshold [2]: < 22500 ng/mL
Cmax [3]: 22500 ng/mL
potency [4]: subnanomolar
